Measured values reported in patent US20060052440A1, “Medicinal composition for treating sudden deafness” (Nichimo Co., Ltd., priority 2002, published 2006).

Test: SOD-like activity (superoxide scavenging activity) by ESR spin trap method, hypoxanthine-xanthine oxidase system with DMPO
Format: biochemical
Conditions: for SOD-like activity after emulsification: after emulsification (Tween-80 or other emulsifier), figures in parentheses; for SOD-like activity (superoxide scavenging activity): not emulsified, extracted with untreated 0.1 M phosphate buffer
Text: This superoxide scavenging activity will be described in further detail below. Superoxides (O2') are a type of active oxygen that are produced by neutrophils and macrophages and protect the body from impurities, but also are the cause of pulmonary emphysema, cataracts, arteriosclerosis, psoriasis, and the like. These superoxides are, therefore, a double-edged sword. The enzyme activity of superoxide dismutase (SOD) and superoxide scavenging activity (SOSA or SOD-like activity) are examples of the ability of food products to eliminate O2'. The former is an enzyme and is therefore broken down by digestive enzymes and goes virtually unabsorbed in vivo when taken orally. Consequently, the latter is promising for food products. […] ESR is a method for measuring SOD-like activity and assessing the ability of […] to scavenge O2'. […] This method is also called the spin trap method. In accordance with preparation by this spin trap method, only the water-soluble components are extracted in order to extract the component with SOD-like activity contained in a sample with 0.1 M phosphate buffer. […] Consequently, measuring superoxide […] activity with the isoflavone pre-emulsified in a small amount of oil or fat was contemplated.

| Structure (SMILES) | SOD-like activity after emulsification | SOD-like activity (superoxide scavenging activity) |
| --- | --- | --- |
| O=c1c(-c2ccc(O)cc2)coc2cc(O)ccc12 [Daidzein, daidzein] | (300 or units/g | 300 or less units/g |
| O=c1c(-c2ccc(O)cc2)coc2cc(O)cc(O)c12 [Genistein, genistein] | (300 or units/g | 300 or less units/g |
